Legend:
[1] = target: Beta-2 adrenergic receptor (Homo sapiens, UniProt P07550); assay: Binding affinity for clone human Beta-2 adrenergic receptor from CHO cell membranes in the presence of I-iodocyanopindolol
[2] = target: Beta-1 adrenergic receptor (Homo sapiens, UniProt P08588); assay: Binding affinity for cloned human Beta-1 adrenergic receptor expressed in CHO cells, tested in the presence of I-iodocyanopindolol.; assay type: cell-based
[3] = target: T1, Beta-3 adrenergic receptor (Homo sapiens, UniProt P13945); assay: Tested for Beta3 adrenergic receptor agonist activity by its ability to stimulate adenylyl cyclase activation as % of the maximal stimulation with isoproterenol; assay type: functional
Target sequence in this assay (P13945 whole entry, looked up): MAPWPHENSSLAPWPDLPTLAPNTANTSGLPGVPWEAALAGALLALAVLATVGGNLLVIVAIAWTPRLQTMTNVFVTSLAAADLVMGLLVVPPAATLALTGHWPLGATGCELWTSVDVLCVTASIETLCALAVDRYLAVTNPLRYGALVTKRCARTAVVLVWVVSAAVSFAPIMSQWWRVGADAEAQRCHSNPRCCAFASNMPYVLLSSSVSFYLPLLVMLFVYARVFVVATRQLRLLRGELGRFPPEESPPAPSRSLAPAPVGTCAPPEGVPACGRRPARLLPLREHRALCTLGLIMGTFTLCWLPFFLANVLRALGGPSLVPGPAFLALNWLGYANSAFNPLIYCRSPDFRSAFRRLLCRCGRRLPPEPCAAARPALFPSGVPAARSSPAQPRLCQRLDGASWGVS

[4] = target: T1, Beta-3 adrenergic receptor; assay: Tested in vitro for its ability to stimulate increase in cAMP in CHO cells expressing the cloned human beta-3 adrenergic receptor; assay type: functional, cell-based
Target sequence in this assay (P13945 whole entry): as the sequence (P13945 whole entry, looked up) above

[5] = Oral bioavailability in dog; assay type: ADME, organism-based, Canis lupus familiaris; details: in vivo
[6] = The half life was determined; assay type: ADME, organism-based, Canis lupus familiaris; details: dog, in vivo
Monkey [7] = assay: Compound was tested for separation between lipolytic potency and tachycardia, as heart rate, effect was determined at highest dose of 10 mg/kg in rhesus monkeys; assay type: functional, Cercopithecidae
[8] = The compound was tested for half life in dog; assay type: ADME, organism-based, Canis lupus familiaris; details: in vivo
Monkey [9] = assay: Effective dose that produced hyperglycerolemia in anesthetized rhesus monkeys; assay type: functional; details: Cercopithecidae, in Macaca mulatta

Beta-2 adrenergic receptor, sequence (P07550 whole entry): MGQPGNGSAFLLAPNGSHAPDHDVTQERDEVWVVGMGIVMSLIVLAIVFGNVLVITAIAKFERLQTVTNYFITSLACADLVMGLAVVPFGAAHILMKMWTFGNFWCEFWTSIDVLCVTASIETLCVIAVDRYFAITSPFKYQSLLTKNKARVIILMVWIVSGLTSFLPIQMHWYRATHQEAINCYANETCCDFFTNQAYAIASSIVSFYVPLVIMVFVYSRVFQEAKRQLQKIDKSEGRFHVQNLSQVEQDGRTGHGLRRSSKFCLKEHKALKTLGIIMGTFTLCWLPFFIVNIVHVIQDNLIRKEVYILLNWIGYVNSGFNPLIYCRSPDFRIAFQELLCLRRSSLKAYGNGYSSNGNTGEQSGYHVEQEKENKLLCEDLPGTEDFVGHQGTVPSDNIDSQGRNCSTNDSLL
Beta-1 adrenergic receptor, sequence (P08588 whole entry): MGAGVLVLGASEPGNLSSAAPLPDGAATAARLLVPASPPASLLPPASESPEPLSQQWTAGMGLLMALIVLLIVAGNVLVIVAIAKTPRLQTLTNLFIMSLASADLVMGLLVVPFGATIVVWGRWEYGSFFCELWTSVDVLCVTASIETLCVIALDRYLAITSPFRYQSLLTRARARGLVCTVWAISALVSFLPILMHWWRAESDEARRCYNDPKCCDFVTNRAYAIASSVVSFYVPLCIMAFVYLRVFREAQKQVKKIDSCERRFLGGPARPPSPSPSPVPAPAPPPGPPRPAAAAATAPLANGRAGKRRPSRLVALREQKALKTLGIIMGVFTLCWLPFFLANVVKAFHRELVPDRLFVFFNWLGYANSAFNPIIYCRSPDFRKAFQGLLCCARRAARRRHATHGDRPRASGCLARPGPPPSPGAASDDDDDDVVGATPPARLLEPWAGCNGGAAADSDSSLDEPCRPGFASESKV

Compound | IC50 [1] [nM] | IC50 [2] [nM] | Activation [3] [%] | EC50 [4] [nM] | bioavailability [5] [%] | half-life [6] [h] | bioavailability ([5]; read-out: Activity) [%] | half-life [8] [h] | Heart rate (Monkey [7]) [%] | ED50 (Monkey [9]) [mg/kg]
COc1ccc(-c2cnn(-c3ccc(S(=O)(=O)Nc4ccc(CCNC[C@H](O)c5cccnc5)cc4)cc3)n2)cc1F | 2500 | 5600 | 80 | 22 | – | – | – | – | – | –
O=S(=O)(Nc1ccc(CCNC[C@H](O)c2cccnc2)cc1)c1ccc(-n2ncc(-c3ccc(OC(F)(F)F)cc3)n2)cc1 | 1600 | 1300 | 84 | 18 | – | – | – | – | – | –
O=C(c1ccc(F)cc1)c1cnn(-c2ccc(S(=O)(=O)Nc3ccc(CCNC[C@H](O)c4cccnc4)cc3)cc2)n1 | – | – | – | 6.4 | – | – | – | – | – | –
O=S(=O)(Nc1ccc(CCNC[C@H](O)c2cccnc2)cc1)c1ccc(-n2ncc(C(O)c3ccc(F)cc3)n2)cc1 (stereo partly specified) | – | – | – | 3.3 | – | – | – | – | – | –
CCCCCCNC(=O)Nc1ccc(S(=O)(=O)Nc2ccc(CCNC[C@H](O)c3cccnc3)cc2)cc1 | – | – | – | – | < 1 | – | – | – | – | –
O=S(=O)(Nc1ccc(CCNC[C@H](O)c2cccnc2)cc1)c1ccc(-n2ncc(COc3ccc(OC(F)(F)F)cc3)n2)cc1 | 620 | 6200 | 75 | 14 | – | – | – | – | – | –
O=S(=O)(Nc1ccc(CCNC[C@H](O)c2cccnc2)cc1)c1ccc(-n2ncc(-c3ccc(F)cc3)n2)cc1 | 9300 | 40000 | 91 | 24 | – | – | – | – | – | –
O=S(=O)(Nc1ccc(CCNC[C@H](O)c2cccnc2)cc1)c1ccc(-n2ncc(Cc3ccc(OC(F)(F)F)cc3)n2)cc1 | 860 | 2600 | 91 | 4.1 | – | – | – | – | – | –
O=S(=O)(Nc1ccc(CCNC[C@H](O)c2cccnc2)cc1)c1ccc(-n2ncc(-c3cccc(F)c3)n2)cc1 | 8800 | 8700 | 89 | 52 | – | – | – | – | – | –
CCCCCCn1ccn(-c2ccc(S(=O)(=O)Nc3ccc(CCNC[C@H](O)c4cccnc4)cc3)cc2)c1=O [L-764646] | – | – | – | – | 7 | – | – | – | – | –
O=S(=O)(Nc1ccc(CCNC[C@H](O)c2cccnc2)cc1)c1ccc(-n2ncc(COc3ccc(C(F)(F)F)cc3)n2)cc1 | 730 | 920 | 72 | 11 | – | – | – | – | – | –
O=S(=O)(Nc1ccc(CCNC[C@H](O)c2cccnc2)cc1)c1ccc(-n2ncc(-c3ccc(C(F)(F)F)cc3)n2)cc1 | 21000 | 21000 | 90 | 14 | 18 | 15 | – | – | – | –
O=S(=O)(Nc1ccc(CCNC[C@H](O)c2cccnc2)cc1)c1ccc(-n2ncc(Cc3ccc(C(F)(F)F)cc3)n2)cc1 | 4700 | 20000 | 85 | 3.1 | – | – | 25 | 6 | <5 | 0.36

Now from value to compound, other results behind:

IC50 [1] [nM] | IC50 [2] [nM] | Activation [3] [%] | EC50 [4] [nM] | bioavailability [5] [%] | half-life [6] [h] | bioavailability ([5]; read-out: Activity) [%] | half-life [8] [h] | Compound | Heart rate (Monkey [7]) [%] | ED50 (Monkey [9]) [mg/kg]
5000 | 28000 | 84 | 24 | – | – | – | – | O=S(=O)(Nc1ccc(CCNC[C@H](O)c2cccnc2)cc1)c1ccc(-n2ncc(Cc3c(F)cccc3F)n2)cc1 | – | –
380 | 3000 | 87 | 6.4 | – | – | – | – | O=S(=O)(Nc1ccc(CCNC[C@H](O)c2cccnc2)cc1)c1ccc(-n2ncc(Cc3cccc(F)c3)n2)cc1 | – | –
780 | 2500 | 75 | 14 | – | – | – | – | O=S(=O)(Nc1ccc(CCNC[C@H](O)c2cccnc2)cc1)c1ccc(-n2ncc(Cc3ccc(F)cc3)n2)cc1 | – | –
690 | 930 | 63 | 10 | – | – | – | – | O=S(=O)(Nc1ccc(CCNC[C@H](O)c2cccnc2)cc1)c1ccc(-n2ncc(COc3ccc(F)c(F)c3)n2)cc1 | – | –
1300 | 2600 | 82 | 14 | – | – | – | – | O=S(=O)(Nc1ccc(CCNC[C@H](O)c2cccnc2)cc1)c1ccc(-n2ncc(-c3ccc(F)c(F)c3)n2)cc1 | – | –
8800 | 10000 | 83 | 48 | – | – | – | – | O=S(=O)(Nc1ccc(CCNC[C@H](O)c2cccnc2)cc1)c1ccc(-n2ncc(Cc3c(F)cc(F)cc3F)n2)cc1 | – | –
1000 | 2000 | 86 | 7.2 | – | 4 | 38 | – | O=S(=O)(Nc1ccc(CCNC[C@H](O)c2cccnc2)cc1)c1ccc(-n2ncc(Cc3ccc(F)c(F)c3)n2)cc1 | – | –

— ChEMBL document CHEMBL1133315, “Human beta3-adrenergic receptor agonists containing 1,2,3-triazole-substituted benzenesulfonamides” (Bioorg Med Chem Lett, 2000)
